Results from patent US20250041313A1, “COMBINATION THERAPY FOR TREATMENT OF CANCER” (CITY OF HOPE, priority 2023, published 2025).

How the values were obtained:
DMS114 cells = experiment: CCK-8 cytotoxicity assay, 72 h; type: cell-based; details: Homo sapiens, DMS-114
Excerpt: (§1) We have determined cell cytotoxicity toward a specific drug, employing Cell Counting Kit-8 (Dojindo Molecular Technologies, Rockville, MD) as previously described (15).
(§2) The expression levels of DRP1 and DHODH in SCLC lines were compared with non-malignant BEAS 2B cells. Elevated levels of DRP1 and pDRP1 at Ser^616 were detected in all tested SCLC cells. Higher expression of DHODH was also observed in all seven SCLC cell lines (FIG. 1C). Previous studies have shown that Leflu and its active metabolite Teri regulate mitochondrial morphology (9,10,26). To find the effects of these two drugs on DRP1, AA docking (27) method was used to search for the best binding pocket for inhibitor binding. […] Leflu has a medium docking score of −5.6 kcal/mol. […] In vitro cytotoxicity effect of Teri and Leflu was tested in a panel of SCLC cell lines. Ten SCLC cell lines were treated with increasing concentrations of each drug for 72 h. […] In contrast, IC50 doses were much higher for Leflu. Upon oral administration of Leflu, over 80% of the drug is converted to Teri (28), indicating a potential reason for higher sensitivity to Teri. Two cell lines, SBC3 and SBC5, with IC50 2 μM and 30 μM, respectively, for Teri were used for additional experiments. […] The inhibitory effect was higher with Teri in both cell lines (FIG. 2A).

DMS273 cells = experiment: CCK-8 cytotoxicity assay, 72 h; type: cell-based; details: Homo sapiens, DMS-273
Excerpt: as §1, §2

H146 cells = experiment: CCK-8 cytotoxicity assay, 72 h; type: cell-based; details: Homo sapiens, NCI-H146
Excerpt: as §1, §2

H345 cells = experiment: CCK-8 cytotoxicity assay, 72 h; type: cell-based; details: Homo sapiens, NCI-H345
Excerpt: as §1, §2

H524 cells = experiment: CCK-8 cytotoxicity assay, 72 h; type: cell-based; details: Homo sapiens, NCI-H524
Excerpt: as §1, §2

H526 cells = experiment: CCK-8 cytotoxicity assay, 72 h; type: cell-based; details: Homo sapiens, NCI-H526
Excerpt: as §1, §2

H69 cells = experiment: CCK-8 cytotoxicity assay, 72 h; type: cell-based; details: Homo sapiens, NCI-H69
Excerpt: as §1, §2

H82 cells = experiment: CCK-8 cytotoxicity assay, 72 h; type: cell-based; details: Homo sapiens, NCI-H82
Excerpt: as §1, §2

panel of SCLC cell lines = experiment: CCK-8 cytotoxicity in a panel of SCLC cell lines (statements on the panel); type: cell-based, human; details: 72 h
Description: The expression levels of DRP1 and DHODH in SCLC lines were compared with non-malignant BEAS 2B cells. […] Previous studies have shown that Leflu and its active metabolite Teri regulate mitochondrial morphology (9,10,26). […] In vitro cytotoxicity effect of Teri and Leflu was tested in a panel of SCLC cell lines. Ten SCLC cell lines were treated with increasing concentrations of each drug for 72 h.
Among the drugs approved for SCLC, lurbinectedin is used to treat patients with metastatic SCLC with disease progression. Lurbinectedin (Lur) is an inhibitor of RNA polymerase II, which is commonly hyperactivated in SCLC, resulting in excessive transcription in tumor cells (44). In this study, we tested the combination of Lur with Teri to see if it may reduce the viability of SCLC cells.

H446 spheroids [1] = experiment: Spheroid MitoSOX assay (mitochondrial superoxide); type: cell-based, human; details: increase after 40 h
Description: The IncuCyte system recorded two days MitoSOX red dye (Thermo Fisher Scientific, Waltham, MA) penetration in live H446 spheroids. Spheroids were labeled with 5 μM of dye and red fluorescence was assessed by IncuCyte software. Fluorescence and brightfield images were acquired on an Axio Observer 7 (Carl Zeiss, Jena, Germany) inverted microscope, equipped with a 10×/0.45 NA Plan-Apochromat objective, TL halogen lamp, Colibri 7, filter set 90 HE, and captured on a Zeiss Axiocam 702 CMOS camera. Exposure times and wavelengths were 15 ms (red fluorescence), 9.4 ms (brightfield), BP 555/30 excitation filter, and QBP 592/25 emission filter.

H446 spheroids [2] = experiment: Spheroid ATP assay (Cell titer glo); type: cell-based, human; details: 72 h, Teri 1600 nM, Lur 1600 pM, Teri/Lur 1600 nM/pM
Description: Cell titer glo/ATP assay (Promega, Madison, WI) was used for ATP measurement in spheroids. After 72 h of drug treatments, intracellular spheroid's ATP concentration was measured by luminescence following the manufacturer protocol using Tecan Spark 10 plate reader.

H446 spheroids [3] = experiment: Imaris mitochondrial morphology in spheroids; type: cell-based, human; details: Teri 1600 nM, Teri/Lur 800, 1600 nM/pM
Description: Spheroids were transferred to low cell attachment dishes, grown for two days, and treated with drug. After treatment, spheroid samples were run with Western blot assay. For spheroid mitochondria visualization, they were stained with 250 nM MitoTracker® Red CMXRos and Hoechst from ThermoFisher Scientific (Waltham, MA) for 2 h after drug treatment. Spheroids were washed, fixated with 4% PFA, transferred into 96-well flat glass-bottom black microplate (Cellvis, Mountain View, CA), and mounted in wells. […] Z-stacks were acquired in Airyscan Fast mode with a 2.0 μm interval and optical zoom of 2.0. […] In Airyscan Fast mode excitation was provided by 405 nm (1.0%) and 561 nm (1.0%) lasers with gain and detection wavelengths: DAPI […] (450 nm) and Red […] (579 nm). 2D images were acquired with a 20×/0.8 NA Plan-Apochromat objective and captured with PMT detectors. […] Roundness ratios were calculated from Surface generated Bounding Box 00 Length measurements. Object lengths less than 0.1 μm were excluded, and lengths greater than 1.26 μm were separately analyzed as clusters. […] The Cells module was used to detect and quantify mitochondria and nucleus area from cell monolayers. […] Imaris includes nuclei in cytoplasm measurements, so mitochondrial area is calculated by subtracting nucleus area from cell cytoplasm area. […]

Cc1oncc1C(=O)Nc1ccc(C(F)(F)F)cc1 [Leflunomide, leflunomide]
IC50 (DMS114 cells): > 152 µM
IC50 (DMS273 cells): > 152 µM
IC50 (H146 cells): 152 µM
IC50 (H345 cells): > 152 µM
IC50 (H524 cells): 133 µM
IC50 (H526 cells): 48.3 µM
IC50 (H69 cells): > 152 µM
IC50 (H82 cells): 103 µM
IC50 doses compared with Teri (panel of SCLC cell lines; ten SCLC cell lines): much higher

COc1ccc2[nH]c3c(c2c1)CCN[C@]31CS[C@@H]2c3c(OC(C)=O)c(C)c4c(c3[C@H](COC1=O)N1[C@@H]2[C@H]2c3c(cc(C)c(OC)c3O)C[C@@H]([C@@H]1O)N2C)OCO4 [Lurbinectedin, lurbinectedin]
cell cytotoxicity at low doses (panel of SCLC cell lines; H69, H82, H446, SBC3, and SBC5 cells): drastically increased cell cytotoxicity
mitochondrial superoxide levels (MitoSOX) (H446 spheroids [1]): unaffected
ATP level compared with the control (H446 spheroids [2]): ~60%
Percentages of round/fragmentated mitochondria (H446 spheroids [3]): significantly decreased

C/C(O)=C(\C#N)C(=O)Nc1ccc(C(F)(F)F)cc1 [Teriflunomide, teriflunomide]
IC50 (DMS114 cells): 12.6 µM
IC50 (DMS273 cells): 43.7 µM
IC50 (H146 cells): 8.6 µM
IC50 (H345 cells): > 43.7 µM
IC50 (H524 cells): 10.8 µM
IC50 (H526 cells): 7.6 µM
IC50 (H69 cells): 17.1 µM
IC50 (H82 cells): 7.2 µM
IC50 (panel of SCLC cell lines; Homo sapiens, five of ten SCLC cell lines, read-out: IC50 in the five sensitive cell lines): < 11 µM
mitochondrial superoxide levels (MitoSOX) (H446 spheroids [1]): unaffected
ATP level compared with the control (H446 spheroids [2]): approximately 80%
Percentages of round/fragmentated mitochondria (H446 spheroids [3]): significantly decreased
